Results reported in patent EP0443568B1, “Fused thiophene derivatives, their production and use” (Takeda Chemical Industries, Ltd., priority 1990, dated 1991).

Legend:
[1] = test system: A-II-induced pressor action; assay: Inhibitory effect on pressor action of A-II in rats after oral administration; assay type: in vivo, Jcl : SD rats; details: Rattus norvegicus, p.o., A-II 100 ng/kg intravenous, male SD rats, read-out: Pressor Response (30 mg/Kg, p.o.)
Protocol: Jcl : SD rats (9 week old, male) were used. On the day previous to the experiment, these animals were applied with cannulation into the femoral artery and vein under anesthesia with pentobarbital Na. The animals were fasted but allowed to access freely to drinking water until the experiment was started. Just on the day of conducting the experiment, the artery cannula was connected with a blood-pressure transducer, and the average blood pressure was recorded by means of polygraph. Before administration of the drug, the pressor action due to intravenous administration of A-II (100 ng/kg) as the control was measured. The drugs were orally administered, and then, at each point of the measurement, A-II was administered intravenously, and the pressor action was similarly measured. By comparing the pressor action before and after administration of the drug, the percent inhibition by the drug on A-II-induced pressor action was evaluated.

A-II-receptor = biological target: T1, A-II-receptor (Bos taurus, UniProt P25104); assay: Inhibition of binding of angiotensin-II to angiotensin receptor (radio receptor assay, 125I-A-II); details: membrane fraction of bovine adrenal cortex, room temperature, one hour, read-out: Radio Receptor Assay IC₅₀
T1 construct: An A-II-receptor was prepared from the membrane fraction of bovine adrenal cortex; from tissue; host or cells: bovine adrenal cortex membrane fraction
T1 sequence (P25104 1-359): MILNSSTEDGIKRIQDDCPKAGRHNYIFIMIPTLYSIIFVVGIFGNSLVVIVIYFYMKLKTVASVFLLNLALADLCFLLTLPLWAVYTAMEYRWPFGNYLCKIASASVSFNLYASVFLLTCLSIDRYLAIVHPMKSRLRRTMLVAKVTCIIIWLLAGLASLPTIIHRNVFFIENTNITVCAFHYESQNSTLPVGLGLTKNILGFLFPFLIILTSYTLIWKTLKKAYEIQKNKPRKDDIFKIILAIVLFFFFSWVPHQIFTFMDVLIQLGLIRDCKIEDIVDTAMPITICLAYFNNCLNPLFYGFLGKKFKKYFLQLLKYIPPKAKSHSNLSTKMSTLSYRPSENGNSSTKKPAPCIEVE
Protocol: An experiment of inhibition on the binding of angiotensin-II (A-II) to A-II-receptor was conducted by modifying the method of Douglas et al. [Endocrinology, 102, 685-696 (1978)]. An A-II-receptor was prepared from the membrane fraction of bovine adrenal cortex.
The compound of the present invention (10⁻⁹M to 3 × 10⁻⁵M ) and ¹²⁵I-A-II (1.85 kBq/50 µ l) were added to the receptor membrane fraction, and the mixture was incubated at room temperature for one hour. The receptor-bound and free ¹²⁵I-A-II were separated through a filter (Whatman GF/B filter), and the radioactivity of ¹²⁵I-A-II bound to the receptor was measured.

Row | IC50 (A-II-receptor) | Structure (SMILES) | inhibition in vivo at 30 mg/kg [1]
1 | 780 nM | CCc1cc2c(=O)c(C(=O)NC(C)c3ccccc3)cn(Cc3ccc(-c4ccccc4-c4nn[nH]n4)cc3)c2s1 (stereo not shown) [compound 25] | ≥ 70%
2 | 210 nM | CCc1cc2c(=O)c(C(=O)NCc3ccccc3F)cn(Cc3ccc(-c4ccccc4-c4nn[nH]n4)cc3)c2s1 [compound 26] | ≥ 70%
3 | 170 nM | CCc1cc2c(=O)c(C(=O)NCc3ccc(F)cc3)cn(Cc3ccc(-c4ccccc4-c4nn[nH]n4)cc3)c2s1 [compound 23] | ≥ 70%
4 | 220 nM | CCc1cc2c(=O)c(C(=O)NCc3ccc(C)cc3)cn(Cc3ccc(-c4ccccc4-c4nn[nH]n4)cc3)c2s1 [compound 28] | 50 to 70%
5 | 250 nM | CCc1cc2c(=O)c(C(=O)NCc3ccccc3OC)cn(Cc3ccc(-c4ccccc4-c4nn[nH]n4)cc3)c2s1 [compound 21] | ≥ 70%
6 | 670 nM | CCOC(=O)c1cn(Cc2ccc(-c3ccccc3-c3nn[nH]n3)cc2)c2sc(C#N)cc2c1=O [compound 20] | –
7 | 190 nM | CCc1cc2c(=O)c(C(=O)NCc3cccc(F)c3)cn(Cc3ccc(-c4ccccc4-c4nn[nH]n4)cc3)c2s1 [compound 24] | ≥ 70%
8 | 120 nM | CCc1cc2c(=O)c(C(=O)NCc3ccccc3C)cn(Cc3ccc(-c4ccccc4-c4nn[nH]n4)cc3)c2s1 [compound 29] | ≥ 70%

The remaining lines, values behind:

Row | Structure (SMILES) | IC50 (A-II-receptor) | inhibition in vivo at 30 mg/kg [1]
9 | CCc1cc2c(=O)c(C(=O)NCc3ccccc3)cn(Cc3ccc(-c4ccccc4-c4nn[nH]n4)cc3)c2s1 [compound 12] | 60 nM | ≥ 70%
10 | CCc1cc2c(=O)c(C(=O)NCC(C)C)cn(Cc3ccc(-c4ccccc4-c4nn[nH]n4)cc3)c2s1 [compound 14] | 130 nM | –
11 | CCOC(=O)c1cn(Cc2ccc(-c3ccccc3-c3nn[nH]n3)cc2)c2sccc2c1=O [compound 4] | 200 nM | –
12 | CCOC(=O)c1cn(Cc2ccc(-c3ccccc3C(=O)O)cc2)c2sc(CC)cc2c1=O [compound 11] | 210 nM | –
13 | CCc1cc2c(=O)c(C(=O)Nc3ccccc3)cn(Cc3ccc(-c4ccccc4-c4nn[nH]n4)cc3)c2s1 [compound 16] | 120 nM | ≥ 70%
14 | CCOC(=O)c1cn(Cc2ccc(-c3ccccc3-c3nn[nH]n3)cc2)c2sc(Br)cc2c1=O [compound 3] | 70 nM | –
15 | CCc1cc2c(=O)c(C(=O)NCCO)cn(Cc3ccc(-c4ccccc4-c4nn[nH]n4)cc3)c2s1 [compound 15] | 50 nM | –
16 | CCc1cc2c(=O)c(C(=O)NCc3ccccn3)cn(Cc3ccc(-c4ccccc4-c4nn[nH]n4)cc3)c2s1 [compound 30] | 20 nM | ≥ 70%
17 | CCc1cc2c(=O)c(C(=O)OCC(C)C)cn(Cc3ccc(-c4ccccc4-c4nn[nH]n4)cc3)c2s1 [compound 7] | 170 nM | –
18 | CCCc1cc2c(=O)c(C(=O)OCC)cn(Cc3ccc(-c4ccccc4-c4nn[nH]n4)cc3)c2s1 [compound 6] | 90 nM | –
19 | CCOC(=O)c1cn(Cc2ccc(-c3ccccc3-c3nn[nH]n3)cc2)c2sc(C)cc2c1=O [compound 5] | 50 nM | –
20 | CCc1cc2c(=O)c(C(N)=O)cn(Cc3ccc(-c4ccccc4-c4nn[nH]n4)cc3)c2s1 [compound 13] | 20 nM | –
21 | CCc1cc2c(=O)c(C(=O)OCCOC)cn(Cc3ccc(-c4ccccc4-c4nn[nH]n4)cc3)c2s1 [compound 8] | 10 nM | –
22 | CCOC(=O)c1cn(Cc2ccc(-c3ccccc3-c3nn[nH]n3)cc2)c2sc(CC)cc2c1=O [compound 2] | 50 nM | –
23 | CCc1cc2c(=O)c(C(=O)O)cn(Cc3ccc(-c4ccccc4-c4nn[nH]n4)cc3)c2s1 [compound 10] | 40 nM | 50 to 70%
